Assays:
[1] = test system: EGR1 luciferase reporter; test: EGR1 luciferase reporter in WPMY-1 cells; format: cell-based, human; settings: WPMY-1, digoxin 60 or 120 nM, 5 ng/ml TGF-β, 24 hours
Experimental: A) WPMY-1 human fibroblast cells transfected with SMAD (left) or EGR1 (right) luciferase reporter were treated with or without 5 ng/ml TGF-β in the presence or absence of Digoxin (60 or 120 nM) for 24 hours. Relative luciferase activity is shown. *P<0.05, **P<0.01, ***P<0.001 are significant differences compared to values set to 1 (n=3, Values are ±SEM). B) J2 mouse fibroblast cells were treated with or without 5 ng/ml TGF-β in the presence or absence of increasing concentrations (30, 60, 120, or 240 nM) of digoxin for 24 hours. Representative blot is shown with two exposures of fibronectin to account for strong signal intensity (n=3).
Finally, J2 mouse fibroblast cells were treated with or without 5 ng/ml TGF-β in the presence or absence of increasing concentrations (30, 60, 120, or 240 nM) of digoxin for 24 hours.

[2] = test system: WPMY-1 cells; test: Viability / metabolic activity assay on WPMY-1 cells
Experimental: Metabolically viable cells (indicated by bar; left y-axis) are indicated by fluorescent intensity (560/590 nm).
Cardiac glycosides have been shown previously to inhibit cell growth in a variety of cell types, in order to determine whether cardiac glycosides inhibited TGE-β-induced fibronectin expression by affecting metabolic activity, viability assays were performed on WPMY-1 cells over 48 hours in 1% FBS DMEM.

## C[C@H]1O[C@@H](O[C@H]2[C@@H](O)C[C@H](O[C@H]3[C@@H](O)C[C@H](O[C@H]4CC[C@@]5(C)[C@H](CC[C@@H]6[C@@H]5C[C@@H](O)[C@]5(C)[C@@H](C7=CC(=O)OC7)CC[C@]65O)C4)O[C@@H]3C)O[C@@H]2C)C[C@H](O)[C@@H]1O [digoxin]
[1]
  EGR-1 dependent promoter (luciferase) activity: lowers the activation of promoter dependent on EGR-1
[2]
  cell viability / metabolic activity: no effect on cell viability

— patent US11096952B2, “Chemicals and methods to prevent and treat TGF-beta mediated activation of fibroblasts to reduce and treat cancer and fibrosis” (Board of Supervisors of Louisiana State University and …, priority 2016, dated 2021)
